# Laboratory results as given in patent US20260130885A1, “ANTIMICROBIAL COMPOSITIONS, PHARMACEUTICAL COMPOSITIONS AND USE THEREOF” (priority 2022, published 2026).
# System: MRSA USA300
# Test: Antibacterial activity assay (MIC by broth microdilution, MBC by subculture)
# Assay type: cell-based, Staphylococcus aureus
# Settings: +8 mg/L DHA
# Procedure: The antimicrobial activity was based on MIC and MBC; MIC is the minimum inhibitory concentration and MBC is the minimum bactericidal concentration. The MIC of individual test agents against MRSA USA300 strains was determined using the broth microdilution method according to CLSI guidelines. Briefly, overnight bacterial cultures in LB medium were diluted 1:50 in fresh LB medium and incubated at 37° C. until reaching an OD600 of 0.5 to 0.6. Bacterial suspensions were diluted to a final concentration of 5×10^5 cfu/mL in fresh CAMHB and then exposed to each test agent at increasing doses in triplicate in 96-well plates for 24 hours at 37° C. The MIC of each agent was defined as the lowest concentration without visible bacterial growth. […] The lowest broth dilution that had no viable bacteria was considered the MBC.
# Then, the combination effect was measured by calculating their corresponding fractional inhibitory concentration index (FICI) with the equation ΣFIC (FICi)=FICA+FICB=(CombA/MICA)+(CombB/MICB), where MICA and MICB are the MICs of drugs A and B alone, respectively, and CombA and CombB are the concentrations of drugs A and B in combination, respectively. […] was defined as an FICI≤0.5, no interaction was defined as an FICI>0.5-4.0, and antagonism was defined as an FICI>4.
Structure (SMILES),MBC,MIC
C=CCC(C(=O)Nc1ccc(Cl)c(C(F)(F)F)c1)C(=O)Nc1ccc(Cl)c(C(F)(F)F)c1 [SC5037],0.0078 µg/mL,0.0039 µg/mL
C#Cc1cccc(NC(=O)C(CC=C)C(=O)Nc2cccc(C#C)c2)c1 [SC5038],>64 µg/mL,>64 µg/mL
C=CCC(C(=O)Nc1cc(Cl)cc(Cl)c1)C(=O)Nc1cc(Cl)cc(Cl)c1 [SC5040],0.125 µg/mL,0.0039 µg/mL
O=C(Nc1cc(Cl)cc(Cl)c1)C(CCCl)C(=O)Nc1ccc([N+](=O)[O-])c(C(F)(F)F)c1 (centres unmarked) [SC5041],0.0625 µg/mL,0.0625 µg/mL
O=C(Nc1cc(Cl)cc(Cl)c1)C(Cc1ccccc1)C(=O)Nc1cc(Cl)cc(Cl)c1 [SC5043],0.0156 µg/mL,0.0156 µg/mL
O=C(Nc1cc(C(F)(F)F)cc(C(F)(F)F)c1)C(Cc1ccccc1)C(=O)Nc1cc(C(F)(F)F)cc(C(F)(F)F)c1 [SC5044],0.0078 µg/mL,0.000975 µg/mL
O=C(NC1CCCCC1)C(CCCl)C(=O)NC1CCCCC1 [SC5048],>64 µg/mL,>64 µg/mL
CCCNC(=O)C(CCCl)C(=O)Nc1ccc(Cl)c(C(F)(F)F)c1 (centres unmarked) [SC5049],8 µg/mL,8 µg/mL
C=CCNC(=O)C(CCCl)C(=O)Nc1ccc(Cl)c(C(F)(F)F)c1 (centres unmarked) [SC5050],16 µg/mL,8 µg/mL
C=CCNC(=O)C(CCCl)C(=O)NCC=C [SC5052],2 µg/mL,1 µg/mL
O=C(Nc1ccc(Cl)c(C(F)(F)F)c1)C(CCCl)C(=O)NC1CCCCC1 (centres unmarked) [SC5053],2 µg/mL,1 µg/mL
CN(C(=O)C(CCCl)C(=O)N(C)c1ccc(Cl)c(C(F)(F)F)c1)c1ccc(Cl)c(C(F)(F)F)c1 [SC5101],>64 µg/mL,>64 µg/mL
CN(C(=O)C(CCCl)C(=O)N(C)c1cc(Cl)cc(Cl)c1)c1cc(Cl)cc(Cl)c1 [SC5102],>64 µg/mL,>64 µg/mL
O=C(Nc1ccc(Cl)c(C(F)(F)F)c1)C(CCCCl)C(=O)Nc1ccc(Cl)c(C(F)(F)F)c1 [SC5103],0.0078 µg/mL,0.0039 µg/mL
O=C(Nc1cc(Cl)cc(Cl)c1)C(F)(CCCl)C(=O)Nc1cc(Cl)cc(Cl)c1 [SC5104],0.0078 µg/mL,0.0078 µg/mL
O=C(Nc1ccc(Cl)c(C(F)(F)F)c1)C(F)(CCCl)C(=O)Nc1ccc(Cl)c(C(F)(F)F)c1 [SC5105],0.125 µg/mL,0.125 µg/mL
O=C(CC(=O)Nc1ccc(Cl)c(C(F)(F)F)c1)Nc1ccc(Cl)c(C(F)(F)F)c1 [SC5106],0.5 µg/mL,0.25 µg/mL
O=C(Nc1ccc(Cl)c(C(F)(F)F)c1)C1(C(=O)Nc2ccc(Cl)c(C(F)(F)F)c2)CC1 [SC5107],0.125 µg/mL,0.0625 µg/mL
O=C(Nc1ccc(Cl)c(C(F)(F)F)c1)Nc1ccc(Cl)c(C(F)(F)F)c1 [SC5178],0.00156 µg/mL,0.00012 µg/mL

# Same assay, conditions: MBC; Table 2
row,Structure (SMILES),bactericidal combination effect of the fatty acid with SC5005 (in words)
1,CCCCCCCC/C=C\CCCCCCCCCCCC(=O)O [erucic acid],exhibited a synergistic bactericidal effect with SC5005
2,CCCCCCCC/C=C\CCCCCCCCCC(=O)O [gondoic acid],exhibited a synergistic bactericidal effect with SC5005

# Same assay, conditions: Staphylococcus aureus; amide compound alone; read-out: MBC
row,Structure (SMILES),MBC
1,C=CCC(C(=O)Nc1ccc(Cl)c(C(F)(F)F)c1)C(=O)Nc1ccc(Cl)c(C(F)(F)F)c1 [SC5037],2 µg/mL
2,C#Cc1cccc(NC(=O)C(CC=C)C(=O)Nc2cccc(C#C)c2)c1 [SC5038],> 64 µg/mL
3,C=CCC(C(=O)Nc1cc(Cl)cc(Cl)c1)C(=O)Nc1cc(Cl)cc(Cl)c1 [SC5040],2 µg/mL
4,O=C(Nc1cc(Cl)cc(Cl)c1)C(CCCl)C(=O)Nc1ccc([N+](=O)[O-])c(C(F)(F)F)c1 (centres unmarked) [SC5041],2 µg/mL
5,O=C(Nc1cc(Cl)cc(Cl)c1)C(Cc1ccccc1)C(=O)Nc1cc(Cl)cc(Cl)c1 [SC5043],4 µg/mL
6,O=C(Nc1cc(C(F)(F)F)cc(C(F)(F)F)c1)C(Cc1ccccc1)C(=O)Nc1cc(C(F)(F)F)cc(C(F)(F)F)c1 [SC5044],2 µg/mL
7,O=C(NC1CCCCC1)C(CCCl)C(=O)NC1CCCCC1 [SC5048],> 64 µg/mL
8,CCCNC(=O)C(CCCl)C(=O)Nc1ccc(Cl)c(C(F)(F)F)c1 (centres unmarked) [SC5049],> 64 µg/mL
9,C=CCNC(=O)C(CCCl)C(=O)Nc1ccc(Cl)c(C(F)(F)F)c1 (centres unmarked) [SC5050],> 64 µg/mL
10,C=CCNC(=O)C(CCCl)C(=O)NCC=C [SC5052],> 64 µg/mL
11,O=C(Nc1ccc(Cl)c(C(F)(F)F)c1)C(CCCl)C(=O)NC1CCCCC1 (centres unmarked) [SC5053],> 64 µg/mL
12,CN(C(=O)C(CCCl)C(=O)N(C)c1ccc(Cl)c(C(F)(F)F)c1)c1ccc(Cl)c(C(F)(F)F)c1 [SC5101],> 64 µg/mL
13,CN(C(=O)C(CCCl)C(=O)N(C)c1cc(Cl)cc(Cl)c1)c1cc(Cl)cc(Cl)c1 [SC5102],> 64 µg/mL
14,O=C(Nc1ccc(Cl)c(C(F)(F)F)c1)C(CCCCl)C(=O)Nc1ccc(Cl)c(C(F)(F)F)c1 [SC5103],2 µg/mL
15,O=C(Nc1cc(Cl)cc(Cl)c1)C(F)(CCCl)C(=O)Nc1cc(Cl)cc(Cl)c1 [SC5104],4 µg/mL
16,O=C(Nc1ccc(Cl)c(C(F)(F)F)c1)C(F)(CCCl)C(=O)Nc1ccc(Cl)c(C(F)(F)F)c1 [SC5105],> 64 µg/mL
17,O=C(CC(=O)Nc1ccc(Cl)c(C(F)(F)F)c1)Nc1ccc(Cl)c(C(F)(F)F)c1 [SC5106],> 64 µg/mL
18,O=C(Nc1ccc(Cl)c(C(F)(F)F)c1)Nc1ccc(Cl)c(C(F)(F)F)c1 [SC5178],2 µg/mL

# Same assay, conditions: Staphylococcus aureus; amide compound alone; read-out: MIC
row,Structure (SMILES),MIC
1,C=CCC(C(=O)Nc1ccc(Cl)c(C(F)(F)F)c1)C(=O)Nc1ccc(Cl)c(C(F)(F)F)c1 [SC5037],1 µg/mL
2,C#Cc1cccc(NC(=O)C(CC=C)C(=O)Nc2cccc(C#C)c2)c1 [SC5038],> 64 µg/mL
3,C=CCC(C(=O)Nc1cc(Cl)cc(Cl)c1)C(=O)Nc1cc(Cl)cc(Cl)c1 [SC5040],1 µg/mL
4,O=C(Nc1cc(Cl)cc(Cl)c1)C(CCCl)C(=O)Nc1ccc([N+](=O)[O-])c(C(F)(F)F)c1 (centres unmarked) [SC5041],0.5 µg/mL
5,O=C(Nc1cc(Cl)cc(Cl)c1)C(Cc1ccccc1)C(=O)Nc1cc(Cl)cc(Cl)c1 [SC5043],2 µg/mL
6,O=C(Nc1cc(C(F)(F)F)cc(C(F)(F)F)c1)C(Cc1ccccc1)C(=O)Nc1cc(C(F)(F)F)cc(C(F)(F)F)c1 [SC5044],0.5 µg/mL
7,O=C(NC1CCCCC1)C(CCCl)C(=O)NC1CCCCC1 [SC5048],> 64 µg/mL
8,CCCNC(=O)C(CCCl)C(=O)Nc1ccc(Cl)c(C(F)(F)F)c1 (centres unmarked) [SC5049],> 64 µg/mL
9,C=CCNC(=O)C(CCCl)C(=O)Nc1ccc(Cl)c(C(F)(F)F)c1 (centres unmarked) [SC5050],> 64 µg/mL
10,C=CCNC(=O)C(CCCl)C(=O)NCC=C [SC5052],> 64 µg/mL
11,O=C(Nc1ccc(Cl)c(C(F)(F)F)c1)C(CCCl)C(=O)NC1CCCCC1 (centres unmarked) [SC5053],> 64 µg/mL
12,CN(C(=O)C(CCCl)C(=O)N(C)c1ccc(Cl)c(C(F)(F)F)c1)c1ccc(Cl)c(C(F)(F)F)c1 [SC5101],> 64 µg/mL
13,CN(C(=O)C(CCCl)C(=O)N(C)c1cc(Cl)cc(Cl)c1)c1cc(Cl)cc(Cl)c1 [SC5102],> 64 µg/mL
14,O=C(Nc1ccc(Cl)c(C(F)(F)F)c1)C(CCCCl)C(=O)Nc1ccc(Cl)c(C(F)(F)F)c1 [SC5103],0.25 µg/mL
15,O=C(Nc1cc(Cl)cc(Cl)c1)C(F)(CCCl)C(=O)Nc1cc(Cl)cc(Cl)c1 [SC5104],0.5 µg/mL
16,O=C(Nc1ccc(Cl)c(C(F)(F)F)c1)C(F)(CCCl)C(=O)Nc1ccc(Cl)c(C(F)(F)F)c1 [SC5105],> 64 µg/mL
17,O=C(CC(=O)Nc1ccc(Cl)c(C(F)(F)F)c1)Nc1ccc(Cl)c(C(F)(F)F)c1 [SC5106],> 64 µg/mL
18,O=C(Nc1ccc(Cl)c(C(F)(F)F)c1)Nc1ccc(Cl)c(C(F)(F)F)c1 [SC5178],0.25 µg/mL

# Same assay, conditions: Staphylococcus aureus; fatty acid alone; read-out: MBC fatty acid
row,Structure (SMILES),MBC
1,CCCCC/C=C\C/C=C\C/C=C\C/C=C\CCCC(=O)O [arachidonic acid],1020 µg/mL
2,CCCCCCCC/C=C/CCCCCCCC(=O)O [elaidic acid],> 1020 µg/mL
3,CCCCCCCC/C=C\CCCCCCCCCCCC(=O)O [erucic acid],1020 µg/mL
4,CCCCCCCC/C=C\CCCCCCCCCC(=O)O [gondoic acid],> 1020 µg/mL
5,CCCCC/C=C\C/C=C\CCCCCCCC(=O)O [linoleic acid],> 1020 µg/mL
6,CCCCCCCCCCCCCC(=O)O [myristic acid],> 1020 µg/mL
7,CCCCCCCC/C=C\CCCCCCCCCCCCCC(=O)O [nervonic acid],> 1020 µg/mL
8,CCCCCCCC/C=C\CCCCCCCC(=O)O [oleic acid],> 1020 µg/mL
9,CCCCCC/C=C\CCCCCCCC(=O)O [palmitoleic acid],512 µg/mL
10,CCCCCCCCCCCCCCCCCC(=O)O [stearic acid],> 1020 µg/mL
11,"CC/C=C\C/C=C\C/C=C\CCCCCCCC(=O)O [α- linolenic acid, α-linolenic acid]",1020 µg/mL

# Same assay, conditions: Staphylococcus aureus; fatty acid alone; read-out: MIC fatty acid
row,Structure (SMILES),MIC
1,CCCCC/C=C\C/C=C\C/C=C\C/C=C\CCCC(=O)O [arachidonic acid],128 µg/mL
2,CCCCCCCC/C=C/CCCCCCCC(=O)O [elaidic acid],> 1020 µg/mL
3,CCCCCCCC/C=C\CCCCCCCCCCCC(=O)O [erucic acid],128 µg/mL
4,CCCCCCCC/C=C\CCCCCCCCCC(=O)O [gondoic acid],512 µg/mL
5,CCCCC/C=C\C/C=C\CCCCCCCC(=O)O [linoleic acid],1020 µg/mL
6,CCCCCCCCCCCCCC(=O)O [myristic acid],512 µg/mL
7,CCCCCCCC/C=C\CCCCCCCCCCCCCC(=O)O [nervonic acid],128 µg/mL
8,CCCCCCCC/C=C\CCCCCCCC(=O)O [oleic acid],512 µg/mL
9,CCCCCC/C=C\CCCCCCCC(=O)O [palmitoleic acid],64 µg/mL
10,CCCCCCCCCCCCCCCCCC(=O)O [stearic acid],512 µg/mL
11,"CC/C=C\C/C=C\C/C=C\CCCCCCCC(=O)O [α- linolenic acid, α-linolenic acid]",256 µg/mL

# Same assay, conditions: amide compound alone
Structure (SMILES),MBC,MIC
O=C(Nc1ccc(Cl)c(C(F)(F)F)c1)C1(C(=O)Nc2ccc(Cl)c(C(F)(F)F)c2)CC1 [SC5107],>64 µg/mL,>64 µg/mL

# Same assay, conditions: summary of Table 1
row,Structure (SMILES),effect of the fatty acid on the MIC of SC5005 (in words)
1,CCCCCCCC/C=C\CCCCCCCCCCCC(=O)O [erucic acid],had no effect on the MIC of SC5005
2,CCCCCCCC/C=C\CCCCCCCCCC(=O)O [gondoic acid],had no effect on the MIC of SC5005

# Same assay, conditions: summary of Tables 1 and 2
row,Structure (SMILES),synergy of the fatty acid with SC5005 (in words)
1,CCCCCCCC/C=C/CCCCCCCC(=O)O [elaidic acid],did not exhibit synergy with SC5005
2,CCCCCCCCCCCCCC(=O)O [myristic acid],"neither of nervonic acid (C24:1n9c) and myristic acid (C14:1n5c), which have 24 and 14 carbon atoms respectively, showed any synergistic activity with SC5005"
3,CCCCCCCC/C=C\CCCCCCCCCCCCCC(=O)O [nervonic acid],"neither of nervonic acid (C24:1n9c) and myristic acid (C14:1n5c), which have 24 and 14 carbon atoms respectively, showed any synergistic activity with SC5005"
4,CCCCCC/C=C\CCCCCCCC(=O)O [palmitoleic acid],exhibited synergy
5,CCCCCCCCCCCCCCCCCC(=O)O [stearic acid],failed to exhibit synergy
